From EP4741383A1, “COMPOUND AND USE THEREOF AS ANTI-CANCER DRUG” (Tyligand Bioscience (Shanghai) Limited, priority 2023, dated 2025)

Experiments:
[1] = target: T1, CYP1A2 (Homo sapiens, UniProt P05177); test: CYP450 inhibition in human liver microsomes, CYP1A2; format: in vitro ADME; settings: pH 7.4, read-out: % CYP inhibition @ 10 µM 1A2
T1 construct: tissue Corning or Xenotech; host or cells: human liver microsomes
T1 sequence (P05177 1-516): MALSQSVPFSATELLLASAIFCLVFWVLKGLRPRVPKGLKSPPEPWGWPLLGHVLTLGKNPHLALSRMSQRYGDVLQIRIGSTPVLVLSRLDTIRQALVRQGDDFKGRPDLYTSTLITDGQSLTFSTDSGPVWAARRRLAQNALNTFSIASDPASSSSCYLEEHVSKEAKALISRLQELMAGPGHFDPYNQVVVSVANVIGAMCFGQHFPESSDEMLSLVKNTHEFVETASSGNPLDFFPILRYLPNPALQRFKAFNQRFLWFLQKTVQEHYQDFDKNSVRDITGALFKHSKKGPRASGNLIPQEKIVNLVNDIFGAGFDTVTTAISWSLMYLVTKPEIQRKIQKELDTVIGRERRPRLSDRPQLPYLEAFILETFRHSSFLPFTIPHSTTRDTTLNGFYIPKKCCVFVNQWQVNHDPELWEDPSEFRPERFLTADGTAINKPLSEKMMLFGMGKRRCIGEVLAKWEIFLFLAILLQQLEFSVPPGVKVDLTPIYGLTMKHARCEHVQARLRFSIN
Excerpt: (§1) According to standard methods in the field for the study of cytochrome P450 enzyme systems, such as the method described in Kerns, Edward H. and Di Li et al., Drug-like Properties: Concepts, Structure Design and Methods: from ADME to Toxicity Optimization (2008), San Diego, Academic Press, and Lin, Tong et al., In Vitro Assessment of Cytochrome P450 Inhibition: Strategies for Increasing LC/MS-Based Assay Throughput Using a One-Point IC50 Method and Multiplexing High-Performance Liquid Chromatography (J. Pharm. Sci. 2007, 96 (9), 2485). The inhibitory effect of the disclosed compounds on the cytochrome P450 enzyme system was similarly examined below.
(§2) Human liver microsomes were purchased from Corning or Xenotech. The test compounds were evaluated by detecting the metabolism of substrates for different Cyp450 isoforms by human liver microsomes.
(§3) 0.1 M potassium phosphate buffer (K-buffer, pH 7.4) was pre-warmed.
(§4) 100 mM K-buffer was prepared by mixing 9.5 mL of stock solution A (1 M potassium dihydrogen phosphate, prepared by dissolving 136.5 g of potassium dihydrogen phosphate in 1 L of Milli-Q water) with 40.5 mL of stock solution B (1 M potassium hydrogen phosphate, prepared by dissolving 174.2 g of potassium hydrogen phosphate in 1 L of Milli-Q water). The total volume was adjusted to 500 mL with Milli-Q water, and the buffer was titrated to pH 7.4 using KOH or H3PO4.
(§5) Test compound solution and specific inhibitor solution (400× dilution) were prepared in a 96-well plate. For the test compound, 8 µL of 10 mM test compound was transferred into 12 µL of ACN. For specific inhibitors of CYP1A2, CYP2C9, and CYP2D6: 12 µL of 1 mM α-naphthoflavone, 10 µL of 40 mM sulfaphenazole, 10 µL of 10 mM quinidine, and 8 µL of DMSO were mixed. For specific inhibitors of CYP3A4, CYP2B6, CYP2C8, and CYP2C19: 8 µL of DMSO stock solution was added to 12 µL of ACN.
(§6) A 4× diluted NADPH solution was prepared by dissolving 66.7 mg of NADPH in 10 mL of 0.1 M K-buffer (pH 7.4). […]

[2] = target: T2, CYP2B6 (Homo sapiens, UniProt P20813); test: CYP450 inhibition in human liver microsomes, CYP2B6; format: in vitro ADME; settings: pH 7.4, read-out: % CYP inhibition @ 10 µM 2B6
T2 construct: tissue Corning or Xenotech; host or cells: human liver microsomes
T2 sequence (P20813 1-491): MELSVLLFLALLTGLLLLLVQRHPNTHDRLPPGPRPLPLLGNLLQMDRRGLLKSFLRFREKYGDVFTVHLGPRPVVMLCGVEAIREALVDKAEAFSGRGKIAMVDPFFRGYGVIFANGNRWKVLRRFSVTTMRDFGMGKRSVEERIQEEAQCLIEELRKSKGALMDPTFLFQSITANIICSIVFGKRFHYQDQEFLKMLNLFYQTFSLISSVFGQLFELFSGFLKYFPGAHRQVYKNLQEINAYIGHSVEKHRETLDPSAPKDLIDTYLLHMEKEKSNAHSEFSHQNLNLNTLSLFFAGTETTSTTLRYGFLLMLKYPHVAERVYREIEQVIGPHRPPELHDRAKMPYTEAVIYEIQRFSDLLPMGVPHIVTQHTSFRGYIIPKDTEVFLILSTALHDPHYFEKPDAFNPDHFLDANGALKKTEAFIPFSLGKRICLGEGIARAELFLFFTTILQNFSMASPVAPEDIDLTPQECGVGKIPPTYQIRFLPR
Excerpt: as §1, §2, §3, §4, §5, §6

| inhibition at 10 min, 10 µM [1] | inhibition at 10 min, 10 µM [2] | Structure (SMILES) |
| --- | --- | --- |
| 17.1% | 1.32% | O=C(Nc1ccc(-c2cc3cc(F)c(-c4nnn[nH]4)cc3n2C2CCC2)cc1)C(=O)Nc1ccc(N2CCC(CO)CC2)cc1 [Example 23] |
| 9.47% | 15.3% | O=C(Nc1ccc(-c2cc3cc(F)c(-c4nnn[nH]4)cc3n2C2CCC2)cc1)C(=O)Nc1ccc(N2CCC3(CCOC3)CC2)cc1 [Example 67] |
| 11.4% | 7.06% | CC1(n2c(-c3ccc(NC(=O)C(=O)Nc4ccc(N5CCC6(CCOC6)CC5)cc4)cc3)cc3cc(F)c(-c4nnn[nH]4)cc32)CCC1 [Example 68] |
